Source: ChEMBL document CHEMBL4613325, “Design of Development Candidate eFT226, a First in Class Inhibitor of Eukaryotic Initiation Factor 4A RNA Helicase” (J Med Chem, 2020)
pIC50: −log10 of the molar value.

Experiments:
[1] = system: MDA-MB-231; test: Antiproliferative activity against human MDA-MB-231 cells assessed as reduction in cell proliferation incubated for 72 hrs by CellTiter-Glo reagent based assay; assay type: functional; conditions: MDA-MB-231, 72 h
[2] = Apparent permeability from apical to basolateral side in human Caco2 cells at 10 uM by LC/MS/MS analysis
[3] = Efflux ratio in human Caco2 cells at 10 uM by LC/MS/MS analysis
[4] = Stability in rat liver microsomes assessed as parent compound remaining at 1 uM pre-incubated for 10 mins before NADPH addition and measured after 30 mins by LC/MS/MS analysis; assay type: ADME, Microsome; conditions: read-out: Stability
[5] = Stability in human liver microsomes assessed as parent compound remaining at 1 uM pre-incubated for 10 mins before NADPH addition and measured after 30 mins by LC/MS/MS analysis; assay type: ADME, Microsome; conditions: read-out: Stability
[6] = target: hERG (KCNH2) (Homo sapiens, UniProt Q12809); test: Inhibition of human ERG at 10 uM by patch-clamp assay relative to control
Chain of hERG (KCNH2) (Q12809 whole entry): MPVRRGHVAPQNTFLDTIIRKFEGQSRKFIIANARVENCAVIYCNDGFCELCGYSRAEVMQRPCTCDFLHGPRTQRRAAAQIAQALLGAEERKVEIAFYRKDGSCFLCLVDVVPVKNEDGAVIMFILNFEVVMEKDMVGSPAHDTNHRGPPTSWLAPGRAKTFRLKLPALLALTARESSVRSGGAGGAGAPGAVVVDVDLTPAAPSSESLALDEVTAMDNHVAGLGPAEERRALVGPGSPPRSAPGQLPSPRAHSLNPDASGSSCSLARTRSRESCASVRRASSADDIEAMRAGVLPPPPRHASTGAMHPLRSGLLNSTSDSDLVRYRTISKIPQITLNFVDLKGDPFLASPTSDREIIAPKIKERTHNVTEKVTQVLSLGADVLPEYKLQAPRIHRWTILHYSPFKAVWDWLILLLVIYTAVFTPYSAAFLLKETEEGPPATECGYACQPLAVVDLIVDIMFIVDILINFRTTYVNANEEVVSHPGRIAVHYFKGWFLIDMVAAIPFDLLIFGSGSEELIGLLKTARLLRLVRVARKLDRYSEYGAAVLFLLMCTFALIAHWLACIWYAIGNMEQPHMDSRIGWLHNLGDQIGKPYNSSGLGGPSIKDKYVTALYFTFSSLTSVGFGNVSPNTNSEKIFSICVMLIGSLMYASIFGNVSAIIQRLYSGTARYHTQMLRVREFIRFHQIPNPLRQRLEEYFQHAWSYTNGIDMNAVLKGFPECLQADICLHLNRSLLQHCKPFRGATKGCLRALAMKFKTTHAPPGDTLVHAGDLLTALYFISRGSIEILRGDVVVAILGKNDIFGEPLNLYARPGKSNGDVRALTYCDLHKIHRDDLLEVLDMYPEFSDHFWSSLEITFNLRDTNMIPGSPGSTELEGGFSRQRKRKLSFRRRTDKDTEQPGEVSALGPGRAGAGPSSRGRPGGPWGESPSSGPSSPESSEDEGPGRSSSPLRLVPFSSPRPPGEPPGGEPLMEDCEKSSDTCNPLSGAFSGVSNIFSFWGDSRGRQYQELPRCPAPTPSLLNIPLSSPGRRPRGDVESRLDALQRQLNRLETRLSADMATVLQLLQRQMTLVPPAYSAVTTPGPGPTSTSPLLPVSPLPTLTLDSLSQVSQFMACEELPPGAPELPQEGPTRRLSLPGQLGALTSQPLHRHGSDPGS

Structure (SMILES)	pIC50 [1]	remaining at 0.5 h, 1 µM [4]	remaining at 0.5 h, 1 µM [5]	other results
CN(C)C(=O)[C@H]1[C@@H](O)[C@@]2(O)c3ncc(C#N)cc3O[C@@]2(c2ccc(C#N)cc2)[C@@H]1c1ccccc1	6.41	–	–	–
CCN(CC)C[C@H]1[C@@H](O)[C@@]2(O)c3c(OC)cncc3O[C@@]2(c2ccc(C#N)cc2)[C@@H]1c1ccccc1	7.21	76%	73%	Papp A→B at 10 µM ([2]; Caco-2): 0.3 ×10⁻⁶ cm/s; efflux ratio at 10 µM ([3]; Caco-2): 35; inhibition at 10 µM [6]: 40%
COc1cncc2c1[C@]1(O)[C@H](O)[C@H](CN3CC4(COC4)C3)[C@@H](c3ccccc3)[C@]1(c1ccc(C#N)cc1)O2	6.91	74%	81%	Papp A→B at 10 µM ([2]; Caco-2): 0.1 ×10⁻⁶ cm/s; efflux ratio at 10 µM ([3]; Caco-2): 41
Cc1ccc([C@@]23Oc4cc(Cl)cnc4[C@]2(O)[C@H](O)[C@H](C(=O)N(C)C)[C@H]3c2ccccc2)cc1	6.84	–	–	–
CN(C)C(=O)[C@H]1[C@@H](O)[C@@]2(O)c3ccc(C#N)cc3O[C@@]2(c2ccc(C#N)cc2)[C@@H]1c1ccccc1 (racemic)	7.59	–	–	–
CN(C)C(=O)[C@H]1[C@@H](O)[C@@]2(O)c3ncc(Cl)cc3O[C@@]2(c2ccc(C(F)(F)F)cc2)[C@@H]1c1ccccc1	6.49	–	–	–
COc1ccc2c(n1)O[C@@]1(c3ccc(C#N)cc3)[C@H](c3ccccc3)[C@@H](C(=O)N(C)C)[C@@H](O)[C@@]21O (racemic)	< 6.00	–	–	–
CN(C)S(=O)(=O)[C@H]1[C@@H](O)[C@@]2(O)c3ncc(Cl)cc3O[C@@]2(c2ccc(C#N)cc2)[C@@H]1c1ccccc1 (racemic)	6.52	–	–	–
COc1cnc2c(c1)O[C@@]1(c3ccc(C#N)cc3)[C@H](c3ccccc3)[C@@H](C(=O)N(C)C)[C@@H](O)[C@@]21O	6.80	–	–	–
CN(C)C(=O)[C@H]1[C@@H](O)[C@@]2(O)c3ncc(Cl)cc3O[C@@]2(c2ccc(OC(F)(F)F)cc2)[C@@H]1c1ccccc1	6.22	–	–	–
COc1cncc2c1[C@]1(O)[C@H](O)[C@H](CN(C)CC(F)F)[C@@H](c3ccccc3)[C@]1(c1ccc(C#N)cc1)O2	6.60	< 1%	1%	Papp A→B at 10 µM ([2]; Caco-2): 2.6 ×10⁻⁶ cm/s; efflux ratio at 10 µM ([3]; Caco-2): 3.2; inhibition at 10 µM [6]: 11%
COc1ccc([C@@]23Oc4cc(C#N)cnc4[C@]2(O)[C@H](O)[C@H](C(=O)N(C)C)[C@H]3c2ccccc2)cc1	6.22	–	–	–
CNC[C@H]1[C@@H](O)[C@@]2(O)c3c(OC)cncc3O[C@@]2(c2ccc(C#N)cc2)[C@@H]1c1ccccc1 (racemic)	6.32	90%	98%	Papp A→B at 10 µM ([2]; Caco-2, Papp): 0.3 ×10⁻⁶ cm/s; efflux ratio at 10 µM ([3]; Caco-2, Ratio): 3.9; inhibition at 10 µM [6]: < 10%
COc1ccc2c(c1)O[C@@]1(c3ccc(C#N)cc3)[C@H](c3ccccc3)[C@@H](C(=O)N(C)C)[C@@H](O)[C@@]21O (racemic)	7.17	–	–	–
COc1cncc2c1[C@]1(O)[C@H](O)[C@H](CN3CCCCC3)[C@@H](c3ccccc3)[C@]1(c1ccc(C#N)cc1)O2	7.30	56%	81%	–
COc1cncc2c1[C@]1(O)[C@H](O)[C@H](CN3[C@@H]4CC[C@H]3COC4)[C@@H](c3ccccc3)[C@]1(c1ccc(C#N)cc1)O2	7.00	51%	51%	Papp A→B at 10 µM ([2]; Caco-2): 1.9 ×10⁻⁶ cm/s; efflux ratio at 10 µM ([3]; Caco-2): 5.3
COc1nccc2c1[C@]1(O)[C@H](O)[C@H](C(=O)N(C)C)[C@@H](c3ccccc3)[C@]1(c1ccc(C#N)cc1)O2 (racemic)	6.50	–	–	–
COc1cncc2c1[C@]1(O)[C@H](O)[C@H](CN3CCC(F)(F)CC3)[C@@H](c3ccccc3)[C@]1(c1ccc(C#N)cc1)O2	6.80	42%	45%	Papp A→B at 10 µM ([2]; Caco-2): 4.8 ×10⁻⁶ cm/s; efflux ratio at 10 µM ([3]; Caco-2): 1.7; inhibition at 10 µM [6]: 30%
CN(C)C[C@H]1[C@@H](O)[C@@]2(O)c3ncc(Cl)cc3O[C@@]2(c2ccc(C#N)cc2)[C@@H]1c1ccccc1	6.62	–	–	–
COc1cncc2c1[C@]1(O)[C@H](O)[C@H](CN(C)C)[C@@H](c3ccccc3)[C@]1(c1ccc(C#N)cc1)O2 (stereo in doubt; (+)-37)	–	72%	75%	Papp ([2]; caco-2, 10 µM, 10 µM): 0.2 ×10⁻⁶ cm/s; Ratio ([3]; caco-2, 10 µM, 10 µM): 23; inhibition at 10 µM [6]: 11%
COc1cncc2c1[C@]1(O)[C@H](O)[C@H](CN3CCOCC3)[C@@H](c3ccccc3)[C@]1(c1ccc(C#N)cc1)O2	6.92	52%	40%	Papp A→B at 10 µM ([2]; Caco-2, Papp): 1.5 ×10⁻⁶ cm/s; efflux ratio at 10 µM ([3]; Caco-2, Ratio): 5.3; inhibition at 10 µM [6]: < 10%
COc1cncc2c1[C@]1(O)[C@H](O)[C@H](CN3[C@@H]4CCC[C@H]3CC4)[C@@H](c3ccccc3)[C@]1(c1ccc(C#N)cc1)O2	6.84	68%	62%	Papp A→B at 10 µM ([2]; Caco-2): 0.5 ×10⁻⁶ cm/s; efflux ratio at 10 µM ([3]; Caco-2): 35
CNC(=O)[C@H]1[C@@H](O)[C@@]2(O)c3ncc(Cl)cc3O[C@@]2(c2ccc(C#N)cc2)[C@@H]1c1ccccc1	7.49	–	–	Papp A→B at 10 µM ([2]; Caco-2, Papp): 0.5 ×10⁻⁶ cm/s
COc1ccc([C@@]23Oc4cc(OC)cc(OC)c4[C@]2(O)[C@H](O)[C@H](C(=O)N(C)C)[C@H]3c2ccccc2)cc1 [ROCAGLAMIDE]	7.70	–	–	–

Structure (SMILES)	pIC50 [1]	remaining at 0.5 h, 1 µM [4]	remaining at 0.5 h, 1 µM [5]	other results
COc1cncc2c1[C@]1(O)[C@H](O)[C@H](CN3CC(F)(F)C3)[C@@H](c3ccccc3)[C@]1(c1ccc(C#N)cc1)O2	6.68	–	–	Papp A→B at 10 µM ([2]; Caco-2): 1.9 ×10⁻⁶ cm/s; efflux ratio at 10 µM ([3]; Caco-2): 5.7; inhibition at 10 µM [6]: < 10%
N#Cc1ccc([C@@]23Oc4cc(Cl)cnc4[C@]2(O)[C@H](O)[C@H](c2ncco2)[C@H]3c2ccccc2)cc1 (racemic)	6.63	–	–	–
COc1cncc2c1[C@]1(O)[C@H](O)[C@H](CNC(C)(C)C)[C@@H](c3ccccc3)[C@]1(c1ccc(C#N)cc1)O2	6.52	92%	99%	inhibition at 10 µM [6]: < 10%
COc1ccc([C@@]23Oc4cc(OC)ccc4[C@]2(O)[C@H](O)[C@H](C(=O)N(C)C)[C@H]3c2ccccc2)cc1 (racemic)	6.70	–	–	–
COc1cncc2c1[C@]1(O)[C@H](O)[C@H](CCN(C)C)[C@@H](c3ccccc3)[C@]1(c1ccc(C#N)cc1)O2 (racemic)	6.84	77%	75%	Papp A→B at 10 µM ([2]; Caco-2): 0.1 ×10⁻⁶ cm/s; efflux ratio at 10 µM ([3]; Caco-2): 27; inhibition at 10 µM [6]: 11%
N#Cc1ccc([C@@]23Oc4cc(Cl)cnc4[C@]2(O)[C@H](O)C[C@H]3c2ccccc2)cc1 (racemic)	6.17	–	–	–
CS(=O)(=O)[C@H]1[C@@H](O)[C@@]2(O)c3ncc(Cl)cc3O[C@@]2(c2ccc(C#N)cc2)[C@@H]1c1ccccc1	5.52	–	–	–
CN(C)C(=O)[C@H]1[C@@H](O)[C@@]2(O)c3ncc(Cl)cc3O[C@@]2(c2ccc(Cl)cc2)[C@@H]1c1ccccc1	6.80	–	–	–
COc1ccc([C@@]23Oc4cc(OC)cnc4[C@]2(O)[C@H](O)[C@H](C(=O)N(C)C)[C@H]3c2ccccc2)cc1 (racemic)	6.00	–	–	–
N#Cc1ccc([C@@]23Oc4cc(Cl)cnc4[C@]2(O)[C@H](O)[C@H](CO)[C@H]3c2ccccc2)cc1 (racemic)	5.83	–	–	–
COc1cncc2c1[C@]1(O)[C@H](O)[C@H](CN)[C@@H](c3ccccc3)[C@]1(c1ccc(C#N)cc1)O2 (racemic)	6.68	104%	106%	Papp A→B at 10 µM ([2]; Caco-2): 0.11 ×10⁻⁶ cm/s; efflux ratio at 10 µM ([3]; Caco-2): 4; inhibition at 10 µM [6]: 11%
COc1cncc2c1[C@]1(O)[C@H](O)[C@H](CN(C)C(C)(C)C)[C@@H](c3ccccc3)[C@]1(c1ccc(C#N)cc1)O2	6.85	77%	61%	Papp A→B at 10 µM ([2]; Caco-2): 0.1 ×10⁻⁶ cm/s; efflux ratio at 10 µM ([3]; Caco-2): 57; inhibition at 10 µM [6]: 16%
CNS(=O)(=O)[C@H]1[C@@H](O)[C@@]2(O)c3ncc(Cl)cc3O[C@@]2(c2ccc(C#N)cc2)[C@@H]1c1ccccc1 (racemic)	5.69	–	–	–
CN(C)C(=O)[C@H]1[C@@H](O)[C@@]2(O)c3ncc(Cl)cc3O[C@@]2(c2ccc(F)cc2)[C@@H]1c1ccccc1	< 6.00	–	–	–
CN(C)C(=O)[C@H]1[C@@H](O)[C@@]2(O)c3ncc(Cl)cc3O[C@@]2(c2ccc(S(C)(=O)=O)cc2)[C@@H]1c1ccccc1	< 6.00	–	–	–
N#Cc1ccc([C@@]23Oc4cc(Cl)cnc4[C@]2(O)[C@H](O)[C@H](C(N)=O)[C@H]3c2ccccc2)cc1	7.05	–	–	Papp A→B at 10 µM ([2]; Caco-2): 0.5 ×10⁻⁶ cm/s
COc1ccc([C@@]23Oc4cc(Cl)ccc4[C@]2(O)[C@H](O)[C@H](C(=O)N(C)C)[C@H]3c2ccccc2)cc1 (racemic)	7.28	–	–	–
COc1ccc([C@@]23Oc4cc(C#N)ccc4[C@]2(O)[C@H](O)[C@H](C(=O)N(C)C)[C@H]3c2ccccc2)cc1 (racemic)	7.42	–	–	–
CN(C)C(=O)[C@H]1[C@@H](O)[C@@]2(O)c3cnc(C#N)cc3O[C@@]2(c2ccc(C#N)cc2)[C@@H]1c1ccccc1	6.51	–	–	–
CN(C)C(=O)[C@H]1[C@@H](O)[C@@]2(O)c3ncc(Cl)cc3O[C@@]2(c2ccc(C(F)F)cc2)[C@@H]1c1ccccc1	6.62	–	–	–
CN(C)C(=O)[C@H]1[C@@H](O)[C@@]2(O)c3ncc(Cl)cc3O[C@@]2(c2ccc(C#N)cc2)[C@@H]1c1ccccc1	7.06	–	–	Papp A→B at 10 µM ([2]; Caco-2): 1.8 ×10⁻⁶ cm/s
COc1cncc2c1[C@]1(O)[C@H](O)[C@H](CN(C)CC(F)(F)F)[C@@H](c3ccccc3)[C@]1(c1ccc(C#N)cc1)O2	6.71	< 1%	< 1%	Papp A→B at 10 µM ([2]; Caco-2): 7.1 ×10⁻⁶ cm/s; efflux ratio at 10 µM ([3]; Caco-2): 1.3
COc1ccc([C@@]23Oc4cc(Cl)cnc4[C@]2(O)[C@H](O)[C@H](C(=O)N(C)C)[C@H]3c2ccccc2)cc1	6.55	–	–	–
CN(C)C(=O)[C@H]1[C@@H](O)[C@@]2(O)c3ccc(Cl)cc3O[C@@]2(c2ccc(C#N)cc2)[C@@H]1c1ccccc1 (racemic)	7.72	–	–	–
